According to patent publication US10829493B2, “Compositions and methods for treating KIT- and PDGFRA-mediated diseases” (Blueprint Medicines Corporation, priority 2019, dated 2020):
Like-named read-outs stand apart in the source and are kept apart here.

Experiments:
[1] = Pharmacokinetics following single intravenous and oral administration in rats; assay type: in vivo, Sprague-Dawley rats
Experimental: Assessment of pharmacokinetics following single intravenous and oral administration in rats: 3 Sprague-Dawley rats were employed for each compound for each route of administration (iv or oral). For iv administration, 1 mg/kg (dose volume=5 mL/kg) of each compound was administered by intravenous route via […] injection; whereas for oral route, 2.5 mg/kg (dose volume=5 mL/kg) was administered via oral gavage. Blood samples were obtained via tail vein at predose, 0.083, 0.25, 0.5, 1, 2, 4 and 8 hr. In addition, blood samples were also obtained at 24 hr via cardiac puncture (under anesthesia with Isoflurane) for terminal bleeding. All the blood samples were analyzed for the drug concentrations via LC/MS-MS. Pharmacokinetic parameters such as Cmax, Tmax, AUClast, AUCinf, MRTlast, MRTinf, T1/2, Vss and CL were obtained by non-compartmental analysis (NCA). Further, unbound clearance (CLu) was obtained as follows: Clu=Cl/fu,plasma.
% F was calculated as follows: % F=[AUCinf(oral)/Dose]/[AUCinf(iv)/Dose]*100 (Zhivkova & Doytchinova, Molecular Pharmaceuticals 10:3758-68 (2013)).

[2] = target: CYP2D6 (Homo sapiens (Human), UniProt P10635); assay: CYP inhibition in human liver microsomes, CYP2D6 (dextromethorphan); assay type: in vitro ADME; details: pooled human liver microsomes, substrate dextromethorphan
Chain of CYP2D6 (P10635 whole entry): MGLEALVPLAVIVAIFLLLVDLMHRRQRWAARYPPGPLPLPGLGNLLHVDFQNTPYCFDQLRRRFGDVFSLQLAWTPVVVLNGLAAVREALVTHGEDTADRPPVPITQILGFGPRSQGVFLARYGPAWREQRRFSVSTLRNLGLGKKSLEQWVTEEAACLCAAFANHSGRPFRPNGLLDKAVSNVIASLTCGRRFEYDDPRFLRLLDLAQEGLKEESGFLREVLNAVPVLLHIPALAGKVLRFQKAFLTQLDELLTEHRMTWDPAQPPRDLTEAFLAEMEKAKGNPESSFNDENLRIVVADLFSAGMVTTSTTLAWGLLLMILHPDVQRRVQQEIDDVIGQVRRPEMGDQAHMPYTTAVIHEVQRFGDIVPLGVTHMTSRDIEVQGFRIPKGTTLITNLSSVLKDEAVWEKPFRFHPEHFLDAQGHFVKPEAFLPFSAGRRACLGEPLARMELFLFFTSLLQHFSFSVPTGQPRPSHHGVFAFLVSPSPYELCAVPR
Experimental: (§1) In vitro studies in human liver microsomes were run according the standard method. […] The samples were then analyzed by LC-MS/MS for the quantification of the probe substrate left after the reaction and the IC50 values were determined by non-linear regression. The substrates for CYP2C9, CYP2D6, CYP3A4 were diclofenac, dextromethorphan and midazolam/testosterone respectively.

[3] = target: CYP3A4 (Homo sapiens (Human), UniProt P08684); assay: CYP inhibition in human liver microsomes, CYP3A4 (midazolam/testosterone); assay type: in vitro ADME
Chain of CYP3A4 (P08684 whole entry): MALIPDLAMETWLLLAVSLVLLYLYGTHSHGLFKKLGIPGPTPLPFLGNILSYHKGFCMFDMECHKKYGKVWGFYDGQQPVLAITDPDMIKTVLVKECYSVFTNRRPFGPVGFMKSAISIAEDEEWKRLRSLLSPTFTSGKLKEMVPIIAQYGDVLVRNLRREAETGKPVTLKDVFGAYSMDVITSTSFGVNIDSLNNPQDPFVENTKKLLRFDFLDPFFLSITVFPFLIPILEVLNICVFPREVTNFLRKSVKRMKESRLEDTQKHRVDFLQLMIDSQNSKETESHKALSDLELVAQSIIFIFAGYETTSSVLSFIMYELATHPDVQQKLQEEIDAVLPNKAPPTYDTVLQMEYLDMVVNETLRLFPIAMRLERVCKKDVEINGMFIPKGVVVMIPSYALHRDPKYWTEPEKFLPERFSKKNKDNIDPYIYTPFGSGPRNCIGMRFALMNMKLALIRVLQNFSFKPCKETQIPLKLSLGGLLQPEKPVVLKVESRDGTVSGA
Experimental: as §1

[4] = target: KIT D816V (Homo sapiens (Human), UniProt P10721, D816V/V560G); assay: HMC1.2 autophosphorylation assay (phospho-Y719 KIT AlphaLISA); assay type: cell-based; details: HMC1.2 cell line, KIT autophosphorylation at tyrosine 719, 90 minutes; read-out: KIT (P-KIT HMC1.2 (nM))
Chain of KIT D816V (Homo sapiens (Human), UniProt P10721, D816V/V560G) (P10721 26-976 V560G/D816V): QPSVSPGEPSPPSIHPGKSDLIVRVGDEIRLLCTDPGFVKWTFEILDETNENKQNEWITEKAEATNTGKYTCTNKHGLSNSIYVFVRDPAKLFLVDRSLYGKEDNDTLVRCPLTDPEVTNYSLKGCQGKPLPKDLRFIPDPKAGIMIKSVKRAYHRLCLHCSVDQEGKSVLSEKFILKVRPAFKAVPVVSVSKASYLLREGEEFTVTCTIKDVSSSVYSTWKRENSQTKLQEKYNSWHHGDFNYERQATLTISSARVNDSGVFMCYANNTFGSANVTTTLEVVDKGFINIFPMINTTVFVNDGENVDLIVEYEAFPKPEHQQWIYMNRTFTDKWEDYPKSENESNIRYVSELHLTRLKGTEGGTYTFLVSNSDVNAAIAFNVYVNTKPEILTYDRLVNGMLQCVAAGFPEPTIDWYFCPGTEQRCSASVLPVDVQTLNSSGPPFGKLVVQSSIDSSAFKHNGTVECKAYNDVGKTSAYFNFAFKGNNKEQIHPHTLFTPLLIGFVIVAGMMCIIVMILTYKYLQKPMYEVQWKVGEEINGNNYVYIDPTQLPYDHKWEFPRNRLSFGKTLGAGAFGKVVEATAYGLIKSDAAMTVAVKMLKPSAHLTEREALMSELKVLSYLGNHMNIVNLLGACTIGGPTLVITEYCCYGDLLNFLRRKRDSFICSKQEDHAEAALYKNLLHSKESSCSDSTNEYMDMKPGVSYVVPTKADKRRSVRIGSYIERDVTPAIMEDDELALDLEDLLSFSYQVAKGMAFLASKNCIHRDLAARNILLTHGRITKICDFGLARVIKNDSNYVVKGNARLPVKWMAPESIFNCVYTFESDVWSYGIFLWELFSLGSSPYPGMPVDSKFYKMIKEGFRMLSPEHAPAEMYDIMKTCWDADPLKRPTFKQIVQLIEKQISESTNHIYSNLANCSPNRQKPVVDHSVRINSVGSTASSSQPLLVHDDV
Experimental: 10,000 HMC1.2 cells were incubated in 22 μL culture media (phenol-red free IMDM, no serum) in each well of a 384-well plate and serum starved overnight in a tissue culture incubator (5% CO2, 37° C.). […] 10 μL of 100 μg/mL streptavidin donor beads (Perkin Elmer) were added to each well, blocked from light with solid black adhesive and shaken at 300 rpm at room temperature for 2 hours. Fluorescence signal was obtained on Envision (Perkin Elmer) by AlphaScreen 384 well HTS protocol.

[5] = target: wt KIT kinase (Homo sapiens (Human), UniProt P10721); assay: Wild-type KIT binding assay (Kd determination, phage-tagged kinase, qPCR)
Chain of wt KIT kinase (P10721 26-976): as the sequence (P10721 26-976 V560G/D816V) above, with G535V, V791D counted along it
Experimental: Kd Determinations. For most assays, including wt KIT kinase, kinase-tagged T7 phage strains were prepared in an E. coli host derived from the BL21 strain. E. coli were grown to log-phase and infected with T7 phage and incubated with shaking at 32° C. until lysis. […] The liganded beads were blocked with excess biotin and washed with blocking buffer (SeaBlock (Pierce), 1% BSA, 0.05% Tween 20, 1 mM DTT) to remove unbound ligand and to reduce non-specific binding. […] Test compounds were prepared as 111× stocks in 100% DMSO. Kds were determined using an 11-point 3-fold compound dilution series with three DMSO control points. […] The compounds were then diluted directly into the assays such that the final concentration of DMSO was 0.9%. All reactions were performed in polypropylene 384-well plate. Each was a final volume of 0.02 ml. […] The kinase concentration in the eluates was measured by qPCR.
Binding Constants (Kds). Binding constants (Kds) were calculated with a standard dose-response curve using the Hill equation: Response=Background+Signal−Background 1+(KdHill Slope/DoseHill Slope). The Hill Slope was set to −1. Curves were fitted using a non-linear least square fit with the Levenberg-Marquardt algorithm.

[6] = target: PDGFRα D842V (Homo sapiens (Human), UniProt P16234, D842V); assay: PDGFRα D842V biochemical enzymatic activity assay (EZReader 2 mobility shift); details: at APPKM for ATP, 25 μM ATP, 90 minutes
Chain of PDGFRα D842V (P16234 24-1089 D842V): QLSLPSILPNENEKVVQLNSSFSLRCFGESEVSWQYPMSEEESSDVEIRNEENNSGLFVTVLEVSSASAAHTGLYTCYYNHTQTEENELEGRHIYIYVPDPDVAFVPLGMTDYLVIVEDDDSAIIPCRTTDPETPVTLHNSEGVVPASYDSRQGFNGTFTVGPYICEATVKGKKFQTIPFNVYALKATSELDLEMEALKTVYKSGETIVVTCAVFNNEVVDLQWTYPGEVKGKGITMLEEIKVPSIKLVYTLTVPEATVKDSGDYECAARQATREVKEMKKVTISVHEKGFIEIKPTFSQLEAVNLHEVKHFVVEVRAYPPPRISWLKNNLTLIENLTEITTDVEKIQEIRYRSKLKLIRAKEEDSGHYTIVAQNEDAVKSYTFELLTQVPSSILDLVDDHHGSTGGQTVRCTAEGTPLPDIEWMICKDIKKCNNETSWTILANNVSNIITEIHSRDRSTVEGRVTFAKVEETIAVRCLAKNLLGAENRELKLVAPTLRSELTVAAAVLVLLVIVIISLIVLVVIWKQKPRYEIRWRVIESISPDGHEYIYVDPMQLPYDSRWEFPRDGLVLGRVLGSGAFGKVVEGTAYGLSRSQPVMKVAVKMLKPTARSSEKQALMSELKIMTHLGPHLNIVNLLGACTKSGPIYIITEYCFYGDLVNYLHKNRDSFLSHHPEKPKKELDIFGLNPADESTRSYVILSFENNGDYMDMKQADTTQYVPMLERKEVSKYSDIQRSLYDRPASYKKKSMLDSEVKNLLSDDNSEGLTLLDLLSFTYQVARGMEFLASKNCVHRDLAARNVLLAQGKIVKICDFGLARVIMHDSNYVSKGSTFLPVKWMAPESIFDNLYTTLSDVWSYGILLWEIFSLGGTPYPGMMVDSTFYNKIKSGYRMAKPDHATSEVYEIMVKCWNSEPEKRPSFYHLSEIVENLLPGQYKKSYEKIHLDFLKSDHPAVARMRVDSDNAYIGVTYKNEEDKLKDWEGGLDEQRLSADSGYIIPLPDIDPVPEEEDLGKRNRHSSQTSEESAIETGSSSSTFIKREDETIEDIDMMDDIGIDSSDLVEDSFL
Description: (§2) PDGFRα and KIT enzymatic activity was monitored using the Perkin Elmer electrophoretic mobility shift technology platform, the EZReader 2.
(§3) Within the linear, steady-state phase of the kinase enzymatic reaction, the mixed pool of phosphorylated (product) and non-phosphorylated (substrate) peptides was passed through the microfluidic system of the PerkinElmer EZ Reader 2, under an applied electric potential difference. The presence of the phosphate group on the product peptide provided a difference in mass and charge between that of the substrate peptide, resulting in a separation of the substrate and product pools in the sample (Perrin et al., Expert Opin Drug Discovery 2010 Jan. 5(1):51-63).
(§4) As the product and substrate peptide mixture passes the lasers within the instrument, these pools are detected (λex=488 nm, λem=568 nm) and resolved as separate peaks. The ratio between these peaks reflects the activity of the compound at that concentration, in that well, under those conditions.
Inhibition of KIT (D816V) PDGFRα (D842V) Mutant Biochemical Enzymatic Activity
(§5) All test articles were dissolved in 100% DMSO at a stock concentration of 10 mM. A 100×, 10-point, 4-fold serial dilution of all test compounds was created in 100% DMSO, starting at a relevant concentration, usually 1 mM. A volume of 0.130 μL of each concentration was transferred to the relevant well of a 384-well assay plate (Greiner 781 201) using a TTPLabtech Mosquito nano-liter dispenser. Using the Multidrop, the remaining constituents of the reaction were then added to the 0.130 μL of compound as follows:
The reaction was stopped by the addition of 70 μl of Stop buffer (100 mM HEPES pH 7.5, 0.015% Brij 35, 35 mM EDTA and 0.2% of Coating Reagent 3, Caliper Lifesciences). The plate was read on a Caliper EZReader 2.

[7] = target: KIT D816V (Homo sapiens (Human), UniProt P10721, D816V); assay: KIT D816V biochemical enzymatic activity assay (EZReader 2 mobility shift); details: at APPKM for ATP, 20 μM ATP, 60 minutes
Chain of KIT D816V (Homo sapiens (Human), UniProt P10721, D816V) (P10721 26-976 D816V): as the sequence (P10721 26-976 V560G/D816V) above, with G535V counted along it
Description: as §2, §3, §4, §5
The plate was read on a Caliper EZReader 2.

clearance ([1]; Sprague-Dawley, blood, rat, iv 1 mg/kg, read-out: Rat IV PK Cl) [mL/min/kg] | bioavailability ([1]; Sprague-Dawley, blood, rat, oral 2.5 mg/kg vs iv 1 mg/kg) [%] | Rat IV PK unbound clearance (Clu) ([1]; iv 1 mg/kg, Clu=Cl/fu,plasma) [mL/min/kg] | IC50 [2] [µM] | IC50 ([3]; as measured according to Example 5, substrate not stated (embodiment 14), read-out: IC50 for CYP3A4) [µM] | IC50 ([3]; pooled human liver microsomes, substrate midazolam, read-out: CYP3A4 IC50 (μM) midazolam) [µM] | IC50 ([3]; pooled human liver microsomes, substrate testosterone, read-out: CYP3A4 IC50 (μM) testosterone) [µM] | IC50 [4] [nM] | Kd [5] [µM] | IC50 [6] [µM] | IC50 [7] [µM] | Compound
12 | 80 | 582 | 10 | < 10 | ≥ 10 | ≥ 10 |  |  |  |  | C[C@](N)(c1ccc(F)cc1)c1cnc(N2CCN(c3ncnn4cc(-c5cnn(CCO)c5)cc34)CC2)nc1 [Compound 4, (S)-2-(4-(4-(4-(5-(1-amino-1-(4-fluorophenyl)ethyl)pyrimidin-2-yl)piperazin-1-yl)pyrrolo[2,1-f][1,2,4]triazin-6-yl)-1H-pyrazol-1-yl)ethanol]
 |  |  |  |  |  |  | < 4.5 | 0.0151 to 0.02 | ≤ 0.0003 | ≤ 0.0003 | CCn1cc(-c2cc3c(N4CCN(c5ncc([C@@](C)(N)c6ccc(F)cc6)cn5)CC4)ncnn3c2)cn1 [Compound 63, reference compound]
